For experiment [1], the target named is Avi-tagged FL MALT-1 (Homo sapiens (Human), UniProt Q9UDY8). Briefly: MALT-1 Fluorogenic Peptide Cleavage Assay (MALT1 inhibition assay). The class given is biochemical. The note with it: Ac-LRSR-AMC peptide substrate, 30 min pre-incubation, 90 min reaction at room temperature. The method in brief: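 Full-length Avi-tagged human MALT-1 (40 nM working stock) pre-incubated 30 min at RT with compound in 25 mM HEPES pH 6.89, 660 mM sodium citrate, 1 mM TCEP, […], 0.05% CHAPS, 2% DMSO. Ac-LRSR-AMC added at Km (50 μM working stock) or 10×Km (280 μM working stock); 90 min at RT, AMC fluorescence (ex 342/em 441 nm), IC50 from % inhibition curves.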

Experiment [2] relates to NF-kB reporter in Jurkat cells. Briefly: NF-kB reporter assay in Jurkat cells stimulated with aCD3/aCD28/PMA. It is filed as cell-based. The note with it: Jurkat cells, 1 hr compound pre-incubation, aCD3/aCD28/PMA stimulation 4 hr, One-Glo readout, read-out: NF-kB Reporter Assay IC50. A digest of the protocol: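 Jurkat cells (25,000/well, serum-free RPMI) were pre-incubated 1 h at 37° C with serially diluted compound, then stimulated 4 h with aCD3/aCD28/PMA at final […]. NF-kB reporter activity was read by One-Glo luminescence; IC50 values reported.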
For orientation: A reporter such as luciferase makes a cellular process visible.

Where two headings read alike, the source gives them in different places.

Sequence of Avi-tagged FL MALT-1 (Q9UDY8 whole entry): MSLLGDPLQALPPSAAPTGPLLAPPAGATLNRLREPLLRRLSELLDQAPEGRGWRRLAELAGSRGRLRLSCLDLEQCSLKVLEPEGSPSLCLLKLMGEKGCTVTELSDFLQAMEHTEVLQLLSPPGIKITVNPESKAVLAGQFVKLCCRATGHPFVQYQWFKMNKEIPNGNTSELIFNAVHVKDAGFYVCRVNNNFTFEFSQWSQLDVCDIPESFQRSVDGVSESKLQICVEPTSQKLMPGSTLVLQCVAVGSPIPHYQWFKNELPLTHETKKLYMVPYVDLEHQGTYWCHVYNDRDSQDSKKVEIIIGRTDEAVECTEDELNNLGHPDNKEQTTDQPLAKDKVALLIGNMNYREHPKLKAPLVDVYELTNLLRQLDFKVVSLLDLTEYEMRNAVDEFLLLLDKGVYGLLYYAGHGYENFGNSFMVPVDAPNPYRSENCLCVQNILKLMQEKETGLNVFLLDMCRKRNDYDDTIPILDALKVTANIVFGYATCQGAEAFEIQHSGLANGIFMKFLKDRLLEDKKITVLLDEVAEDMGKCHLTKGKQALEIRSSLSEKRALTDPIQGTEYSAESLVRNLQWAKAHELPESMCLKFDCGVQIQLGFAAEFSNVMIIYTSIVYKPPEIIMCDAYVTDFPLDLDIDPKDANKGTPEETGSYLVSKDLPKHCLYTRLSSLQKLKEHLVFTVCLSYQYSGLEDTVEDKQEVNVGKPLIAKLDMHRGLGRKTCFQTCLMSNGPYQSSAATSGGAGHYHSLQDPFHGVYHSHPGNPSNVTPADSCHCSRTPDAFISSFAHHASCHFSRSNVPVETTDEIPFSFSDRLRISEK

As a reminder, the IC50 is the point on the concentration scale where inhibition reaches its midpoint. Take `COc1ccc2[nH]nc(C)c2c1N(C)S(=O)(=O)c1cnn(-c2ccnc(C(F)(F)F)c2)c1` [Compound I-80, N-(5-methoxy-3-Methyl-1H-Indazol-4-yl)-N-Methyl-1-(2-(Trifluoromethyl)Pyridin-4-yl)-1H-Pyrazole-4-Sulfonamide]: the results for the IC50 in experiment [1] and in experiment [2] (Homo sapiens) were at most 400 nM and 1000 to 2500 nM, respectively.

On to `COc1ccc2cnn(C)c2c1NS(=O)(=O)c1cnn(-c2cc([C@H](C)N3CCCCC3)ccn2)c1` [Compound I-462, (S)—N-(6-Methoxy-1-Methyl-1H-Indazol-7-yl)-1-(4-(1-(Piperidin-1-yl)Ethyl)Pyridin-2-yl)-1H-Pyrazole-4-Sulfonamide], for which the IC50 was over 2500 nM in experiment [1] and under 400 nM in experiment [2] (Homo sapiens).

On to `COc1ccc2cnn(C)c2c1NS(=O)(=O)c1cnn(-c2cc(C)ccn2)c1` [Compound I-35, N-(6-Methoxy-1-Methyl-1H-Indazol-7-yl)-1-(4-Methylpyridin-2-yl)-1H-Pyrazole-4-Sulfonamide], for which the concentration for half-maximal inhibition (IC50) is at most 400 nM in experiment [1] and under 400 nM in experiment [2] (Homo sapiens).

Turning to `Cn1ncc2cccc(NS(=O)(=O)c3cnn(-c4cc(C5(O)CCOC5)ccn4)c3)c21` (stereo not shown) [Compound I-128, 1-(4-(3-hydroxytetrahydrofuran-3-yl)pyridin-2-yl)-N-(1-methyl-1H-indazol-7-yl)-1H-pyrazole-4-sulfonamide], the figures for the IC50 in experiment [1] and in experiment [2] (Homo sapiens) were over 2500 nM and under 400 nM, respectively.

Consider `CN1C[C@H](n2cc(S(=O)(=O)Nc3cccc4cnn(C)c34)cn2)CCC1=O` [Compound I-350], for which the IC50 in experiment [1] and in experiment [2] (Homo sapiens) was over 2500 nM in each case.

As to `Cc1n[nH]c2cccc(N(C)S(=O)(=O)c3cnn(-c4ccnc(C(F)(F)F)c4)c3)c12` [Compound I-64, N-Methyl-N-(3-Methyl-1H-Indazol-4-yl)-1-(2-(Trifluoromethyl)Pyridin-4-yl)-1H-Pyrazole-4-Sulfonamide], the results for the IC50 in experiment [1] and in experiment [2] (Homo sapiens) were 1000 to 2500 nM and over 2500 nM, respectively.

Turning to `COc1ccc2cnn(C)c2c1NS(=O)(=O)c1cnn(-c2cc(N3CCC4(CC4)C3)ccn2)c1` [Compound I-433], the IC50 is over 2500 nM in experiment [1] and under 400 nM in experiment [2] (Homo sapiens).

As for `COc1ccc2cnn(C)c2c1NS(=O)(=O)c1cnn(-c2cc(C(C)OC)ccn2)c1` (single isomer, unassigned) [Compound I-291, N-(6-methoxy-1-methyl-1H-indazol-7-yl)-1-(4-(1-methoxyethyl)pyridin-2-yl)-1H-pyrazole-4-sulfonamide], the IC50 in experiment [1] is at most 400 nM; in experiment [2], under 400 nM.

`Cn1ncc2cccc(NS(=O)(=O)c3cnn(-c4cc(C5(O)CCOC5)ccn4)c3)c21` (stereo in doubt) [Compound I-312, (R)-1-(4-(3-hydroxytetrahydrofuran-3-yl)pyridin-2-yl)-N-(1-methyl-1H-indazol-7-yl)-1H-pyrazole-4-sulfonamide]: the IC50 in experiment [1] was over 2500 nM; in experiment [2] (Homo sapiens), under 400 nM.

For the molecule `COC1(c2ccnc(-n3cc(S(=O)(=O)Nc4cccc5cnn(C)c45)cn3)c2)CC2(CC2)C1` [Compound I-484, 1-(4-(5-methoxyspiro[2.3]hexan-5-yl)pyridin-2-yl)-N-(1-methyl-1H-indazol-7-yl)-1H-pyrazole-4-sulfonamide], the IC50 in experiment [1] was over 2500 nM; in experiment [2] (Homo sapiens) it was under 400 nM.

Consider `COc1ccc2cnn(C)c2c1NS(=O)(=O)c1cnn(-c2cc(N3CC(F)C3)ccn2)c1` [Compound I-442], for which the IC50 in experiment [1] is 1000 to 2500 nM; in experiment [2] (Homo sapiens) it was under 400 nM.

For `COc1ncc2cnn(C)c2c1NS(=O)(=O)c1cnn(-c2cc(N3CCCCCC3)ccn2)c1` [Compound I-408], the IC50 is over 2500 nM in experiment [1] and under 400 nM in experiment [2] (Homo sapiens).

As to `CCc1ccc2cnn(C)c2c1NS(=O)(=O)c1cnn(-c2cc(OC)ccn2)c1` [Compound I-44, N-(6-Ethyl-1-Methyl-1H-Indazol-7-yl)-1-(4-Methoxypyridin-2-yl)-1H-Pyrazole-4-Sulfonamide], the IC50 in experiment [1] and in experiment [2] (Homo sapiens) was over 2500 nM throughout.

Consider `COc1ccc2cnn(C)c2c1NS(=O)(=O)c1cnn(-c2cc(C(F)(F)F)ncn2)c1` [Compound I-24, N-(6-Methoxy-1-Methyl-1H-Indazol-7-yl)-1-(6-(Trifluoromethyl)Pyrimidin-4-yl)-1H-Pyrazole-4-Sulfonamid], for which the IC50 in experiment [1] and in experiment [2] (Homo sapiens) was 400 to 1000 nM throughout.

For `Cn1ncc2ccc(Cl)c(NS(=O)(=O)c3cnn(-c4cc(C(F)(F)F)ccn4)c3)c21` [Compound I-85, N-(6-chloro-1-Methyl-1H-Indazol-7-yl)-1-(4-(Trifluoromethyl)Pyridin-2-yl)-1H-Pyrazole-4-Sulfonamide], the IC50 in experiment [1] is at most 400 nM; in experiment [2] (Homo sapiens) it was under 400 nM.

For the molecule `CN1CC(C)(C)N(c2ccnc(-n3cc(S(=O)(=O)Nc4cccc5cnn(C)c45)cn3)c2)C1=O` [Compound I-333], the IC50 is over 2500 nM in experiment [1] and under 400 nM in experiment [2] (Homo sapiens).

In the case of `Cn1ncc2cccc(NS(=O)(=O)c3cnn(-c4cc(C5CC(O)C5)ccn4)c3)c21` (stereo not shown) [Compound I-374, 1-(4-(3-hydroxycyclobutyl)pyridin-2-yl)-N-(1-methyl-1H-indazol-7-yl)-1H-pyrazole-4-sulfonamide], the IC50 is over 2500 nM in experiment [1] and under 400 nM in experiment [2] (Homo sapiens).

Regarding `Cn1ncc2cccc(NS(=O)(=O)c3cnn(-c4cc(N5CC(C)(F)C5)ccn4)c3)c21` [Compound I-440, 1-[4-(3-fluoro-3-methylazetidin-1-yl)pyridin-2-yl]-N-(1-methylindazol-7-yl)pyrazole-4-sulfonamide], the IC50 was over 2500 nM in experiment [1] and under 400 nM in experiment [2] (Homo sapiens).

On to `[2H]C([2H])([2H])n1ncc2cnc(OC)c(NS(=O)(=O)c3cnn(-c4cc(C(F)(F)F)ccn4)c3)c21` [Compound I-352, N-(6-methoxy-1-(methyl-d3)-1H-pyrazolo[4,3-c]pyridin-7-yl)-1-(4-(trifluoromethyl)pyridin-2-yl)-1H-pyrazole-4-sulfonamide], for which the IC50 is at most 400 nM in experiment [1] and under 400 nM in experiment [2] (Homo sapiens).

For `C=CC(F)c1ccnc(-n2cc(S(=O)(=O)Nc3c(OC)ccc4cnn(C)c34)cn2)c1` (stereo not shown) [Compound I-343, 1-(4-(1-fluoroallyl)pyridin-2-yl)-N-(6-methoxy-1-methyl-1H-indazol-7-yl)-1H-pyrazole-4-sulfonamide], the IC50 is at most 400 nM in experiment [1] and 1000 to 2500 nM in experiment [2] (Homo sapiens).

As to `[2H]C([2H])([2H])Oc1ccc2cnn(C)c2c1NS(=O)(=O)c1cnn(-c2cc(C(F)(F)F)ccn2)c1` [Compound I-70, N-(6-(Methoxy-D3)-1-Methyl-1H-Indazol-7-yl)-1-(4-(Trifluoromethyl)Pyridin-2-yl)-1H-Pyrazole-4-Sulfonamide], the IC50 in experiment [1] was at most 400 nM; in experiment [2] (Homo sapiens), under 400 nM.

Consider `Cn1ncc2ccc(C3CC3)c(NS(=O)(=O)c3cnn(-c4cc(C(F)(F)F)ncn4)c3)c21` [Compound I-53, N-(6-Cyclopropyl-1-Methyl-1H-Indazol-7-yl)-1-(6-(Trifluoromethyl)Pyrimidin-4-yl)-1H-Pyrazole-4-Sulfonamide], for which the half-inhibitory concentration (IC50) was at most 400 nM in experiment [1] and under 400 nM in experiment [2] (Homo sapiens).

With `[2H]C([2H])([2H])n1nc(F)c2cccc(NS(=O)(=O)c3cnn(-c4cc(C(F)(F)F)ccn4)c3)c21` [Compound I-100], the IC50 in experiment [1] was over 2500 nM; in experiment [2] (Homo sapiens), under 400 nM.

(Values after US20240150321A1, “PYRAZOLYLSULFONAMIDE COMPOUNDS AND THEIR USE IN THERAPY” (HOTSPOT THERAPEUTICS, INC., priority 2022, published 2024).)
